This is an account of results in publication PMC6710338, “Turning a Collagenesis-Inducing Peptide Into a Potent Antibacterial and Antibiofilm Agent Against Multidrug-Resistant Gram-Negative Bacteria” (Frontiers in Microbiology, 2019).

Like-named read-outs stand apart in the source and are kept apart here. Square brackets hold non-standard residues; d marks the D form. Peptide text beside a SMILES is read from it. * marks the point of attachment. Palmitoyl = CCCCCCCCCCCCCCCC(=O)*; βAla = NCCC(=O)O Some results are limits rather than exact numbers.

One assay relates to HFF-1 cells. It is filed as cell-based, human. The protocol: Immortalized human foreskin fibroblasts (HFF-1) were grown as a monolayer from passage number 8–16. For routine maintenance, HFF-1 cells were cultured in Dulbecco’s Modified Eagle Medium (DMEM, from Cell Lines Service) supplemented with 15% fetal bovine serum (FBS, from CLS) and 1% antibiotic/antimycotic solution (100 units/mL of penicillin, 100 μg/mL of streptomycin and 0.25 μg/mL of amphotericin B, from Sigma-Aldrich, St. Louis, MO, United States) at 37°C in an humidified atmosphere with 5% CO2. Cells were harvested by trypsinization [0.25% (w/v) trypsin-EDTA4Na, Sigma-Aldrich, St. Louis, MO, United States] twice a week.
The cytotoxicity of synthetic peptides to HFF-1 cells was evaluated using the standard MTT assay. Briefly, cells were seeded at a density of 8 × 10^4 cells/well onto 96-well plate and incubated at 37°C in a 5% CO2 atmosphere. Cells were allowed to grow for 48 h, and serially diluted peptide solutions (0.78–100 μM) were added to the wells. Then, cells were incubated for 72 h at 37°C, after which wells were washed once with phosphate buffered saline (PBS, Sigma-Aldrich, St. Louis, MO, United States), followed by addition of a 0.45 mg/mL MTT solution to each well. Crystals were allowed to form for 1.5 h. Reaction was stopped by rejecting the medium and addition of dimethylsulfoxide (DMSO, Sigma-Aldrich, St. Louis, MO, United States). Absorbance was read at 570 nm (Biotek PowerWave XS).
At the end of the cytotoxicity assays, the number of viable cells was never below that of initially plated cells. As such, data are represented as peptide concentrations causing 50% growth inhibition (IC50) on HFF-1 cells, rather than as lethal dosis values. IC50 values thus obtained are also included in Table 2.

For the next assay, the system named is E. coli ATCC 25922. The experiment in a line: MIC, broth microdilution (CLSI), ATCC reference strain. In kind it is cell-based, Escherichia coli. As for the experimental part:
(§1) The minimum inhibitory concentration (MIC) of synthetic peptides was determined using the broth microdilution method in cation-adjusted Mueller-Hinton broth (MHB2 – Sigma-Aldrich, St. Louis, MO, United States), according to the recommendations of the Clinical and Laboratory Standards Institute ([CLSI, 2012]), against four reference strains, namely, P. aeruginosa ATCC 27853, E. coli ATCC 25922, S. aureus ATCC 25923 and Enterococcus faecalis ATCC 29212. MIC values of peptide 3.1-PP4 were also determined against MDR clinical isolates of P. aeruginosa (PA002, PA004, Pa3, Pa4), E. coli (Ec1, Ec2, EC001, EC002, EC003) and K. pneumoniae (KP004, KP007, KP010). The peptides were tested in the concentration range of 1–1024 μg/mL. The minimum bactericidal concentration (MBC) was determined as previously reported ([Bessa et al., 2018]). According to CLSI guidelines for antimicrobial susceptibility testing, MIC values were determined for all peptides against ATCC reference strains of two Gram-positive (S. aureus ATCC 25923 and E. faecalis ATCC 29212), and two Gram-negative (P. aeruginosa ATCC 27853 and E. coli ATCC 25922) bacterial species, and are shown in Table 2.

Another assay deals with S. aureus ATCC 25923. The assay is described as above. In kind it is cell-based, Staphylococcus aureus. The protocol: as §1
In the next assay the test system is P. aeruginosa ATCC 27853. The assay is described as above. It is filed as cell-based, Pseudomonas aeruginosa. The protocol: as §1
Another assay relates to E. faecalis ATCC 29212. The description is as above. It is filed as cell-based, Enterococcus faecalis. The protocol:
as §1

[1] abbreviates: E. coli ATCC 25922, broth microdilution in cation-adjusted Mueller-Hinton broth (MHB2), CLSI, range tested 1–1024 μg/mL.
Setting [2] is: S. aureus ATCC 25923, broth microdilution in MHB2, CLSI, range tested 1–1024 μg/mL.
Where [3] appears, read: P. aeruginosa ATCC 27853, broth microdilution in MHB2, CLSI, range tested 1–1024 μg/mL.
Setting [4] is: E. faecalis ATCC 29212, broth microdilution in MHB2, CLSI, range tested 1–1024 μg/mL.

On to `CCCCCCCCCCCCCCCC(=O)N[C@@H](CCCCN)C(=O)N[C@H](C(=O)N[C@H](C(=O)N[C@@H](CCCCN)C(=O)N[C@@H](CO)C(=O)N[C@@H](CCCCN)C(=O)N[C@@H](CCCCN)C(=O)N[C@@H](CC(C)C)C(=O)N[C@@H](CC(C)C)C(=O)N[C@@H](CCCCN)C(=O)N[C@@H](Cc1c[nH]c2ccccc12)C(=O)N[C@@H](CC(C)C)C(=O)N[C@@H](CC(C)C)C(=O)N[C@@H](CCCCN)C(=O)N[C@@H](CC(C)C)C(=O)N[C@@H](CC(C)C)C(N)=O)[C@@H](C)O)[C@@H](C)O` [Peptide C16-PP4-3.1] (Palmitoyl-KTTKSKKLLKWLLKLL-NH2), for which half-maximal inhibition with HFF-1 cells (72 h) (IC50) required 4.98 ± 0.08 µM. Also, the minimal inhibitory concentration (MIC) amounted to 15 µM in the assay with E. coli ATCC 25922 (ATCC 25922); 32 µg/mL against E. coli ATCC 25922 (setting [1]); 29 µM against S. aureus ATCC 25923 (ATCC 25923); 64 µg/mL in the assay with S. aureus ATCC 25923 (setting [2]); 29 µM with P. aeruginosa ATCC 27853 (ATCC 27853); 64 µg/mL against P. aeruginosa ATCC 27853 (setting [3]). Also, the minimum inhibitory concentration (MIC) with E. faecalis ATCC 29212 (ATCC 29212) was 29 µM; in the assay on E. faecalis ATCC 29212 (setting [4]) it was 64 µg/mL.
Consider `C[C@@H](O)[C@H](NC(=O)[C@@H](NC(=O)[C@@H](N)CCCCN)[C@@H](C)O)C(=O)N[C@@H](CCCCN)C(=O)N[C@@H](CO)C(N)=O` [PP4, reference compound] (H-KTTKS-NH2), for which the IC50 in the assay with HFF-1 cells (72 h) is > 100 µM. Moreover, the MIC against E. coli ATCC 25922 (ATCC 25922), against S. aureus ATCC 25923 (ATCC 25923), with P. aeruginosa ATCC 27853 (ATCC 27853) and in the assay on E. faecalis ATCC 29212 (ATCC 29212) was > 1820 µM throughout.
Turning to `CC(C)C[C@H](NC(=O)[C@H](CC(C)C)NC(=O)[C@H](CCCCN)NC(=O)[C@H](CC(C)C)NC(=O)[C@H](CC(C)C)NC(=O)[C@H](Cc1c[nH]c2ccccc12)NC(=O)[C@H](CCCCN)NC(=O)[C@H](CC(C)C)NC(=O)[C@H](CC(C)C)NC(=O)[C@H](CCCCN)NC(=O)[C@H](CCCCN)NC(=O)[C@H](CO)NC(=O)[C@H](CCCCN)NC(=O)[C@@H](NC(=O)[C@@H](NC(=O)[C@@H](N)CCCCN)[C@@H](C)O)[C@@H](C)O)C(N)=O` [PP4-3.1] (H-KTTKSKKLLKWLLKLL-NH2), in the assay on HFF-1 cells (72 h), it took 25 ± 2 µM to reach half-maximal inhibition (IC50). The MIC in the assay with E. coli ATCC 25922 (ATCC 25922) came to 2 µM; in the assay on S. aureus ATCC 25923 (ATCC 25923), 4 µM; with P. aeruginosa ATCC 27853 (ATCC 27853), 1 µM; against E. faecalis ATCC 29212 (ATCC 29212), 8 µM.
For the compound `CCCCCCCCCCCCCCCC(=O)N[C@@H](CCCCN)C(=O)N[C@@H](CCCCN)C(=O)N[C@@H](CC(C)C)C(=O)N[C@@H](CC(C)C)C(=O)N[C@@H](CCCCN)C(=O)N[C@@H](Cc1c[nH]c2ccccc12)C(=O)N[C@@H](CC(C)C)C(=O)N[C@@H](CC(C)C)C(=O)N[C@@H](CCCCN)C(=O)N[C@@H](CC(C)C)C(=O)N[C@@H](CC(C)C)C(N)=O` [Peptide C16-3.1] (Palmitoyl-KKLLKWLLKLL-NH2), in the assay with HFF-1 cells (72 h), inhibition was half-maximal at 23.4 ± 0.7 µM (IC50). Also, the minimum inhibitory concentration (MIC) against E. coli ATCC 25922 (ATCC 25922) is 78.4 µM; in the assay on E. coli ATCC 25922 (setting [1]), 128 µg/mL; in the assay with S. aureus ATCC 25923 (ATCC 25923), > 627 µM; in the assay with S. aureus ATCC 25923 (setting [2]), > 1024 µg/mL; in the assay on P. aeruginosa ATCC 27853 (ATCC 27853), 78.4 µM; in the assay with P. aeruginosa ATCC 27853 (setting [3]), 128 µg/mL. In addition, the MIC in the assay on E. faecalis ATCC 29212 (ATCC 29212) turned out to be 256 µg/mL.
The compound `CC(C)C[C@H](NC(=O)[C@H](CC(C)C)NC(=O)[C@H](CCCCN)NC(=O)[C@H](CC(C)C)NC(=O)[C@H](CC(C)C)NC(=O)[C@H](Cc1c[nH]c2ccccc12)NC(=O)[C@H](CCCCN)NC(=O)[C@H](CC(C)C)NC(=O)[C@H](CC(C)C)NC(=O)[C@H](CCCCN)NC(=O)[C@H](CCCCN)NC(=O)CCNC(=O)[C@H](CO)NC(=O)[C@H](CCCCN)NC(=O)[C@@H](NC(=O)[C@@H](NC(=O)[C@@H](N)CCCCN)[C@@H](C)O)[C@@H](C)O)C(N)=O` [PP4-β-ala-3.1] (H-KTTKS[βAla]KKLLKWLLKLL-NH2) showed an IC50 with HFF-1 cells (72 h) of 24 ± 2 µM. In addition, the MIC came out at 2 µM against E. coli ATCC 25922 (ATCC 25922), 4 µM in the assay with S. aureus ATCC 25923 (ATCC 25923), 2 µM against P. aeruginosa ATCC 27853 (ATCC 27853) and 4 µM in the assay with E. faecalis ATCC 29212 (ATCC 29212).
`CC(C)C[C@H](NC(=O)[C@H](CC(C)C)NC(=O)[C@H](CCCCN)NC(=O)[C@H](CC(C)C)NC(=O)[C@H](CC(C)C)NC(=O)[C@H](Cc1c[nH]c2ccccc12)NC(=O)[C@H](CCCCN)NC(=O)[C@H](CC(C)C)NC(=O)[C@H](CC(C)C)NC(=O)[C@H](CCCCN)NC(=O)[C@@H](N)CCCCN)C(N)=O` [Peptide 3.1, reference compound] (H-KKLLKWLLKLL-NH2): in the assay with HFF-1 cells (50% growth inhibition, MTT, 72 h incubation at 37°C, 0.78–100 μM, absorbance 570 nm, read-out: IC50 ± SEM on HFF-1 cells), the 50% inhibitory concentration (IC50) is 50 ± 3 µM. In addition, the MIC in the assay on E. coli ATCC 25922 (E. coli ATCC 25922, broth microdilution in MHB2, CLSI, value in parentheses) is 6 µM; in the assay with S. aureus ATCC 25923 (S. aureus ATCC 25923, broth microdilution in MHB2, CLSI, value in parentheses), 3 µM; with P. aeruginosa ATCC 27853 (P. aeruginosa ATCC 27853, broth microdilution in MHB2, CLSI, value in parentheses), 3 µM; in the assay on E. faecalis ATCC 29212 (E. faecalis ATCC 29212, broth microdilution in MHB2, CLSI, value in parentheses), 3 to 6 µM.
Take `CCCCCCCCCCCCCCCC(=O)N[C@@H](CCCCN)C(=O)N[C@@H](CCCCN)C(=O)N[C@@H](CC(C)C)C(=O)N[C@@H](CC(C)C)C(=O)N[C@@H](CCCCN)C(=O)N[C@@H](Cc1c[nH]c2ccccc12)C(=O)N[C@@H](CC(C)C)C(=O)N[C@@H](CC(C)C)C(=O)N[C@@H](CCCCN)C(=O)N[C@@H](CC(C)C)C(=O)N[C@@H](CC(C)C)C(=O)N[C@@H](CCCCN)C(=O)N[C@H](C(=O)N[C@H](C(=O)N[C@@H](CCCCN)C(=O)N[C@@H](CO)C(N)=O)[C@@H](C)O)[C@@H](C)O` [Peptide C16-3.1-PP4] (Palmitoyl-KKLLKWLLKLLKTTKS-NH2): 17.8 ± 0.5 µM corresponded to half-maximal inhibition in the assay on HFF-1 cells (72 h) (IC50). The MIC in the assay on E. coli ATCC 25922 (ATCC 25922) is 29 µM; against E. coli ATCC 25922 (setting [1]) it was 64 µg/mL; in the assay on S. aureus ATCC 25923 (ATCC 25923), 59 µM; in the assay on S. aureus ATCC 25923 (setting [2]) it was 128 µg/mL; against P. aeruginosa ATCC 27853 (ATCC 27853) it was 29 µM; against P. aeruginosa ATCC 27853 (setting [3]), 64 µg/mL. For the same compound, the minimal inhibitory concentration (MIC) was in the range of 30 to 59 µM with E. faecalis ATCC 29212 (ATCC 29212) and 64 to 128 µg/mL against E. faecalis ATCC 29212 (setting [4]).
In the case of `CCCCCCCCCCCCCCCC(=O)N[C@@H](CCCCN)C(=O)N[C@H](C(=O)N[C@H](C(=O)N[C@@H](CCCCN)C(=O)N[C@@H](CO)C(N)=O)[C@@H](C)O)[C@@H](C)O` [Peptide C16-PP4, reference compound] (Palmitoyl-KTTKS-NH2), the IC50 in the assay on HFF-1 cells (72 h) is > 100 µM.

Usually IC50 stands for the midpoint of a concentration-inhibition curve. As usually defined, the MIC is the lowest concentration found to suppress growth.
